Assay results reported in patent publication US10076522B2, “Systems and methods for treating bacterial infection” (priority 2016, dated 2018).
In brackets after ≈: the same amount, converted by molar mass. Entries after “also recorded” stand apart in the source; their conditions may differ.

Columns and labels:
[1] = tested on: isolated rabbit Purkinje fibers
[2] = Single-dose ECG study in healthy human volunteers (1.6 and 3.2 mg/kg over 30 minutes); type: in vivo
Procedure: Based on this, a single-dose ECG-study was conducted in healthy human volunteers, where 1.6 mg/kg and 3.2 mg/kg iclaprim was infused over 30 minutes. […] Maximal increases coincided with Cmax levels and were rapidly reversible. Weight-based dosing with 1.6 mg/kg was thus assessed as acceptable for clinical purposes, whereas weight-based dosing at 3.2 mg/kg was associated with relevant QTc prolongations (>60 msec) and nonspecific T-wave alterations, and was not used for further clinical studies.

[3] = tested on: acute bacterial skin and skin structure infections (ABSSSIs) suspected or confirmed to be due to Gram-positive pathogens; test: Phase III REVIVE-1 study, efficacy of fixed dose iclaprim versus vancomycin; type: in vivo, human; conditions: ITT; for non-inferiority (10% margin) compared to vancomycin: 80 mg over 2 hr q12h IV
Procedure: Subjects were evaluated daily up to ETP, then every 48 to 72 hours through the end of treatment. If the last dose of study drug fell on a day when an evaluation was not planned, an additional evaluation visit was performed on that day (i.e., all EOT evaluations were performed on the last day [+2 days] of drug dose).
The infusion time and duration of treatment for both groups was 2 hours and 5 days (minimum duration) to 14 days (maximum duration), respectively.
The primary endpoint for clinical response (defined as the reduction in lesion size ≥20% compared to baseline) was evaluated in all randomized subjects at ETP (48 to 72 hours post-first dose). […] In addition, clinical outcome was evaluated by the investigator at EOT and TOC (7 to 14 days post EOT). The assessments of clinical outcome was categorized as cure, failure, or indeterminate.
Iclaprim was administered at a dose of 80 mg in 500 mL normal saline, infused over 2 hours q12h (every 12 hours) for 5 to 14 days. For subjects with moderate hepatic impairment (Child-Pugh Class B), iclaprim was administered at a dose of 40 mg in 500 mL normal saline, infused over 2 hours q12h for 5 to 14 days.
Dosing interval was every q12 h, q24 h, q48 h, or dosed by daily level based on creatinine clearance.
The primary efficacy endpoint was the proportion of randomized subjects who achieved an early clinical response (defined as reduction in the lesion size ≥20% compared to baseline) at 48 to 72 hours (ETP) and was evaluated among all randomized subjects (ITT population).
The NI bound were 10%. […] Equivalently, if the lower bound of the two-sided 95% CI for P1-P2 was greater than −0.100 based on the Z test with unpooled variance estimate, NI was concluded.

[4] = Exposure to iclaprim in Phase I studies; conditions: human, plasma, intravenous, HMR 01-014, Multiple Dose Q12H × 9 days, arithmetic mean
SCNSA sodium channel = SCNSA sodium channel (Homo sapiens, UniProt Q14524); test: Sodium channel inhibition
[5] = both, human, in vivo
Procedure: A second single-dose ECG study was conducted on healthy human volunteers using weight-based doses of 0.4 mg/kg and 0.8 mg/kg iclaprim base infused over 30 minutes and 1.6 mg/kg infused over 60 minutes.

clinical [6] = conditions: human, in vivo, 1 mg/kg
[7] = 13-week toxicology study in the marmoset, AUC at NOAEL; conditions: monkey, in vivo
[8] = Phase III REVIVE-1 study, safety (adverse events)
Procedure: All subjects who received any study drug were evaluated for safety on the basis of medical history and physical examinations, reports of clinical AEs, routine electrocardiography, and clinically significant findings from routine liver function tests, serum chemistry, hematology, coagulation, and urinalysis (UA) tests. All adverse events were recorded throughout the study period, up to and including the LFU phone call. While blinded to treatment assignment, the investigator categorized the severity of each AE and the potential for relationship to study drug. Serious AEs (SAEs) include those that were life threatening, led to prolongation of the existing hospitalization, a congenital anomaly/birth defect, or caused persistent or significant disability, incapacity, or death. Treatment-emergent AEs (TEAEs) were defined as those that start or worsen in severity during or after the first dose of study drug administration through end of study.
Safety evaluation included incidence of TEAEs, laboratory test results (including liver function tests), vital signs, ECG results, and physical examination findings. All summaries of safety data was based on the safety population (all treated subjects).
The AE summary tables included subject (patient) counts. Therefore, if a subject experienced more than one episode of a particular AE, the subject was counted only once for that event. If a subject had more than one AE that was coded to the same preferred term, the subject was counted only once for that preferred term. Similarly, if a subject had more than one AE within a SOC, the subject was counted only once in that SOC.

clinical [9] = conditions: human, in vivo
[10] = human, in vivo
clinical [11] = conditions: human, in vivo, iv, 0.8 mg/kg, mean Cmax
Procedure: For example, the PK profile of 0.8 mg/kg iclaprim administered by IV was investigated in 8 subjects with mild to moderate obesity (body mass index or “BMI” 30-40) and in 8 subjects with severe obesity (BMI>40). […] Linear regression analysis indicated a strong linear relationship between AUC (and Cmax) and BMI. Thus it was clear that the body composition of the subject affected the pharmacokinetics of IV administered iclaprim, with a greater percentage of body fat causing an increase in AUC and Cmax. […] Thus there is a risk of overdosing subjects with moderate hepatic impairment, which can be mitigated by reducing the IV iclaprim dose by about 50%.

S. aureus = test: MIC90 in worldwide surveillance studies; type: cell-based; conditions: Staphylococcus aureus
Excerpt: The ASSIST-1 and ASSIST-2 studies used sparse sampling with a population PK analysis. The post-hoc estimates of the individual subject PK parameters were used to simulate the plasma iclaprim concentration-time profiles for each subject and, from those profiles, the corresponding values for Cmaxss, AUC0-24hss, AUC/MIC, and T>MIC.

[12] = 150 mg, 150 mg/EtOH & NS (20 min)

SCNSA sodium channel, sequence (Q14524 whole entry): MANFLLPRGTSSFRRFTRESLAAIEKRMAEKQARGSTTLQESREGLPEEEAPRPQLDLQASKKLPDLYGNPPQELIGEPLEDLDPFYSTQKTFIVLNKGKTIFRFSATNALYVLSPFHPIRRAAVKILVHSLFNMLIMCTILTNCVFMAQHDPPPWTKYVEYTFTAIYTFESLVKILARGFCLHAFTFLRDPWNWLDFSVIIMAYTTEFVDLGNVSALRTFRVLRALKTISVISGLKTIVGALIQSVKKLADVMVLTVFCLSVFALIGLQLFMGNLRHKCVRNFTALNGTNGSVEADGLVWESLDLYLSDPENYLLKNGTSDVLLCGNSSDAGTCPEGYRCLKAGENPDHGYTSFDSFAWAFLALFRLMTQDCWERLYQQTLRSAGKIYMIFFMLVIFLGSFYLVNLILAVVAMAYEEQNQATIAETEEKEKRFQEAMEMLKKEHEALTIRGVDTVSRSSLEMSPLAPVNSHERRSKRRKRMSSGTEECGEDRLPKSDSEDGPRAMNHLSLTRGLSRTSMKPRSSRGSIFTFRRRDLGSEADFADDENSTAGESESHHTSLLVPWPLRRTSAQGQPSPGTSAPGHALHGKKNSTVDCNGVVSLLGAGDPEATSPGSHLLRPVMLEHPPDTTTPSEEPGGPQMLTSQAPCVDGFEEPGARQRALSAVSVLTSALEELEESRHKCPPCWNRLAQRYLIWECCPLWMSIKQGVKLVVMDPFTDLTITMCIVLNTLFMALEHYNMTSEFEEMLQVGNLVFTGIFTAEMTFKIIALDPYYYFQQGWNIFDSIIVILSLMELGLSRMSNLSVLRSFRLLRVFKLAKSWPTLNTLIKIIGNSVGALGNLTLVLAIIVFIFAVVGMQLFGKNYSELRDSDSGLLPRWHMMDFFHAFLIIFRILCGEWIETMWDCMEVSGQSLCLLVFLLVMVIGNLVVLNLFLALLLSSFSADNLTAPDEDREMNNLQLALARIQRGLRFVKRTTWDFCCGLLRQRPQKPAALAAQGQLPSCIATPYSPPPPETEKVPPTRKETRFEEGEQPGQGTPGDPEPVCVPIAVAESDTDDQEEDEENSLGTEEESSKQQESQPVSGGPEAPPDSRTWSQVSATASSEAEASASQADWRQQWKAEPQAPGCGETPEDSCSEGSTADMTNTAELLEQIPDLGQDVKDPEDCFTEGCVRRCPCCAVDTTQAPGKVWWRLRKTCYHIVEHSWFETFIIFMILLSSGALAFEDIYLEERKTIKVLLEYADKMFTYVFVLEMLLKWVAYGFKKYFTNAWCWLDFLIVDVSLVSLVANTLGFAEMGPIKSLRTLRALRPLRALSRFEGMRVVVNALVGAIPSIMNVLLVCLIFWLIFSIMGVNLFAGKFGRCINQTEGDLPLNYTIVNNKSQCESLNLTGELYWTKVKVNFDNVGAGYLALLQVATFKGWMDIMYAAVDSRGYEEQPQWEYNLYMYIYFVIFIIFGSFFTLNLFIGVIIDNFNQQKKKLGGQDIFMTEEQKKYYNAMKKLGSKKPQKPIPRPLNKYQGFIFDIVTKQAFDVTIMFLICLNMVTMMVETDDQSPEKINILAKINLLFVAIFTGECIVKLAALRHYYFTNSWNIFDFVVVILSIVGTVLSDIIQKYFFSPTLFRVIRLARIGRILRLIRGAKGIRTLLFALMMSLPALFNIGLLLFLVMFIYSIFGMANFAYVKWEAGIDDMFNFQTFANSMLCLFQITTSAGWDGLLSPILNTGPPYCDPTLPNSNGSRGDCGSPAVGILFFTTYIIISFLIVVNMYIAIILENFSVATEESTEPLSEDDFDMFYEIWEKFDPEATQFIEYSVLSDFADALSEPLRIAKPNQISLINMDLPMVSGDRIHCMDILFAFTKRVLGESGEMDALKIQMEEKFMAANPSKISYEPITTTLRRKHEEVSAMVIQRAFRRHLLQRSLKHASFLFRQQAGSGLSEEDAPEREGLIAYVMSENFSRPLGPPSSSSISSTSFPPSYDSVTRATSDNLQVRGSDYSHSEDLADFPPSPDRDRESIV

## COc1cc(Cc2cnc(N)nc2N)c2c(c1OC)OC(C1CC1)C=C2 (racemic) [Iclaprim]
[1]
  concentration above which action potential duration was increased: above 1 μM
[2]; 3.2 mg/kg infused over 30 minutes
  QTc prolongations: > 60 ms
[2]; 1.6 and 3.2 mg/kg infused over 30 minutes, dose-dependent
  effect on QTc interval: prolonged the QTc interval
[3]; ETP
  non-inferiority (10% margin) compared to vancomycin: achieved the primary endpoint of non-inferiority; also recorded: non-inferior
  Early Clinical Response (ECR), % Difference iclaprim vs vancomycin: −0.13%
[3]; TOC
  non-inferiority (10% margin) compared to vancomycin: achieved NI
  Clinical cure, % Difference iclaprim vs vancomycin: −2.77%
  Clinical cure, percent of subjects: 84.2%
[3]; ETP (48 to 72 hours)
  Early Clinical Response (ECR), number of subjects: 241
  Early Clinical Response (ECR), percent of subjects: 80.9%
[3]; TOC (7 to 14 days after study drug discontinuation)
  Clinical cure, number of subjects: 251
[4]; 75 mg, 75 mg/10% PG (20 min)
  AUC: 1660 ng·h/mL
  Cmax: 1290 ng/mL
[4]; 150 mg, 150 mg/10% PG (20 min)
  AUC: 3600 ng·h/mL
  Cmax: 2350 ng/mL
[4]; [12]
  AUC: 3220 ng·h/mL
  Cmax: 1870 ng/mL
SCNSA sodium channel
  IC50: 95 µM
[5]
  post-infusion QTcF prolongation from baseline (any subject): ≤ 60 ms
Clinical [6]
  Cmax: 792 ng/mL
[7]; female
  AUC at 13 week: 26600 ng·h/mL
[7]; male
  AUC at 13 week: 26900 ng·h/mL
[8]; REVIVE-1 safety population
  Deaths, number of subjects: 0
  Deaths, percent of subjects: 0.0%
[8]; human, in vivo
  Study drug related TEAEs, number of subjects: 57
  Study drug related TEAEs, percent of subjects: 19.5%
  TEAE-related SAEs (Serious AEs), number of subjects: 8
  TEAE-related SAEs (Serious AEs), percent of subjects: 2.7%
  TEAEs (Treatment Emergent Adverse Events), number of subjects: 151
  TEAEs (Treatment Emergent Adverse Events), percent of subjects: 51.5%
  TEAEs leading to discontinuation of study drug, number of subjects: 8
  TEAEs leading to discontinuation of study drug, percent of subjects: 2.7%
Clinical [9]; 0.25 mg/kg
  AUC: 598 ± 270 ng·h/mL
  Cmax: 686 ± 279 ng/mL
Clinical [9]; 0.5 mg/kg
  AUC: 996 ng·h/mL
Clinical [9]; 1 mg/kg
  AUC: 1980 ng·h/mL
Clinical [9]; 2 mg/kg
  AUC: 4040 ng·h/mL
Clinical [9]; 4 mg/kg
  AUC: 6810 ng·h/mL
  Cmax: 4020 ng/mL
[10]
  adverse events related to QTc prolongation: 4 cases
Clinical [11]
  Cmax: 854 ng/mL
S. aureus
  MIC90: 0.12 µg/mL (≈ 0.339 µM)
